# Patent US7563598B2 (Ambergen, Inc., priority 2004, dated 2009)
# Entries after “also recorded” stand apart in the source; their conditions may differ. Where two headings read alike, the source gives them in different places. Square brackets hold non-standard residues; d marks the D form. Peptide text beside a SMILES is read from it. * marks the point of attachment. Nva = CCC[C@H](N)C(=O)O; Cbz = O=C(OCc1ccccc1)*
# Assays:
# [1] = test system: proteases in rabbit reticulocyte extract; conditions: extract pre-treated with inhibitor, then R6; MALDI
# Description: In this experiment, protease inhibitors were tested to inhibit the degradation of the peptide R6 (described above). In one experiment, 10 μL of rabbit reticulocyte extract was pre-treated by incubating with a specific protease inhibitor such as ebelactone or 2-LeuLeuNVa-CHO for 10-15 min. Following pretreatment, peptide R6 was added to above translation mix and incubated for 10 min at 30° C. The reaction was terminated by addition of 100 μL of 100 mM EDTA and the solution was immediately applied to the microcolumn containing 1 μL of Sigma ANTI-FLAG beads. The beads were then washed with 50 μL of 20 mM Tris-HCl, pH 7.2 and the bound peptide was eluted with approximately 4 μL of matrix solution (CHCA/acetonitrile/TFA) directly onto a MALDI plate. In the control experiment, extract pre-treated with buffer was used and processed as described above.
# 2 μL of the above protease inhibitor solution was added to 10 μL of the translation mixture.
# protein synthesis = test: Effect of protease inhibitors on protein synthesis in the translation system; assay type: biochemical
# [2] = test system: proteolysis in PURE I reconstituted E. coli translation system; assay type: biochemical
# [3] = test system: protease activity of E. coli translation extract; test: Mass spectrometry assay of inhibition of R6 degradation in E. coli translation extract; conditions: extract pre-treated with inhibitor, then R6; MALDI
# Description: In this experiment, protease inhibitors were tested to inhibit the degradation of the peptide R6 (described above). […] Following pretreatment, peptide R6 was added to above translation mix and incubated for 10 min at 30° C. The reaction was terminated by addition of 100 μL of 100 mM EDTA and the solution was immediately applied to the microcolumn containing 1 μL of Sigma ANTI-FLAG beads. The beads were then washed with 50 μL of 20 mM Tris-HCl, pH 7.2 and the bound peptide was eluted with approximately 4 μL of matrix solution (CHCA/acetonitrile/TFA) directly onto a MALDI plate. In the control experiment, extract pre-treated with buffer was used and processed as described above. Similar experiments were carried out using E. coli translation extract.
# [4] = test system: protein synthesis in rabbit reticulocyte lysate; assay type: biochemical
# [5] = rabbit reticulocyte lysate (RRL extract); conditions: 30° C., up to 5 min
# [6] = zonally purified E. coli ribosomes
# [7] = PURE I reconstituted E. coli translation system, all components except the DNA; conditions: 37° C., up to 15 min
# [8] = Solution B of the PURE kit (Post-Genome Institute); conditions: 37 degrees, up to 20 minutes (or 10 minutes)
# [9] = heat denatured rabbit reticulocyte extract (by boiling at 100° C. for 5 min in presence of SDS); conditions: 30° C.
# [10] = test system: rabbit reticulocyte lysate, wheat germ extract, E. coli S30 extract; conditions: within several minutes after incubation with the translation mixtures
# Description: 100 picomoles of the synthetic R6 peptide in 1 microliter of water is added to 5 ul of a test solution and incubated for 20 minutes (or 10 minutes) at 37 degrees. 50 ul of PBS is then added to the test mixture and the resulting solution is passed over a 1 microliter anti-FLAG microcolumn (which recognizes the epitope sequence at the N terminus of the R6 peptide). The column is washed with 50 ul of deionized water and the bound peptides are eluted directly onto the maldi plate using 1 microliter of CHCA matrix in 50% acetonitrile/0.2% TFA/49.8% deionized water. The intact R6 peptide and degradation products are detected by Maldi-Tof mass spectrometry in positive ion linear mode.
# Description for Amber-PURE: In order to remove the protease activity from solution B, 100 ul of solution B was added to 200 ul of deionized water and spun through a YM100 Microcon filter with a 100 kDa cut-off (Millipore, Inc) at 10,000 rpm for 5 minutes in a benchtop microfuge at room temperature. […] A 10 ul aliquot contains 3 ul of diluted and filtered solution B, 7 ul of solution A and 10 picomoles of zonally purified ribosomes.
# In this example, the protease-depleted system is used to produce the reference peptide (R6) by in vitro translation using DNA coding for the R6 peptide.
compound,measurement,setting,value
CCC[C@@H](C=O)NC(=O)[C@H](CC(C)C)NC(=O)[C@H](CC(C)C)NC(=O)OCc1ccccc1 [2-LeuLeuNvaCHO] (Cbz-Leu-Leu-[Nva]-aldehyde),inhibition of R6 degradation (protease activity) in rabbit reticulocyte extract,[1],significant reduction in protease activity
NCCc1ccc(S(=O)(=O)F)cc1 [AEBSF],inhibition of protein synthesis,"protein synthesis; if used together with ""Pefabloc protector""",could also inhibit protein synthesis
same,inhibition of R6 proteolysis in PURE I,"[2]; inhibitor pre-incubated 15-30 min, R6 15 min at 37° C.",excellent inhibition
CC(C)C[C@H](NC(=O)[C@@H](NC(=O)N[C@@H](Cc1ccccc1)C(=O)O)[C@@H]1CCN=C(N)N1)C(=O)N[C@H](C=O)Cc1ccccc1 [Chymostatin],inhibition of protease activity (R6 degradation) in E. coli translation extract,[3],only weakly inhibited
C[C@@H]1C[C@@H]([C@H](O)CC2CC(=O)NC(=O)C2)C(=O)[C@@H](C)C1 [cycloheximide],inhibition of protein synthesis,[4],completely inhibited
Ebelactone,inhibition of R6 degradation (protease activity) in rabbit reticulocyte extract,[1],only weak protease inhibition
MDYKDDDDKRRRRRRFFF,cleaved bond,[5],"Phe-Phe, minor, 1 min; also recorded: Arg-Arg, 1 min"
same,not cleaved,[6],devoid of protease activity
same,fragment found,[7],"MDYKDDDDKRRRRR, major, 15 min"
same,cleaved bond,[8],R-R
MYTDIEMNRLGK,not cleaved,[9],retains complete peptide signal
"R6: protease-sensitive peptide, sequence MDYKDDDDKRRRRRRFFF (SEQ ID NO:152), FLAG epitope at the N-terminus (N-terminal FLAG epitope)",peptide product obtained by in vitro translation,Amber-PURE,intact patent peptide
same,peptide products obtained by in vitro translation,PURE,correspond to degradation products
same,intact peptide after incubation with PURE I mixture,"[2]; 15 min, 37° C., no inhibitor",disappearance of the intact R6 peptide
same,degradation of sub-nanomolar amounts of peptide,[10],complete degradation
aprotinin,inhibition of protein synthesis,protein synthesis,inhibit protein synthesis
same,inhibition of protease activity (R6 degradation) in E. coli translation extract,[3],significant inhibition
